Measurements taken from ChEMBL document CHEMBL1201862, “PubChem BioAssay data set” (2004).
The source made the active and inactive calls.

Key:
Insulin-degrading enzyme [1] = biological target: T1, Insulin-degrading enzyme (Homo sapiens, UniProt P14735); test: cellular IDE activation of Abeta substrate cleavage – fluorescence polarization, HEK cells, dose response (AID 588439); assay type: functional, cell-based
T1 sequence (P14735 whole entry): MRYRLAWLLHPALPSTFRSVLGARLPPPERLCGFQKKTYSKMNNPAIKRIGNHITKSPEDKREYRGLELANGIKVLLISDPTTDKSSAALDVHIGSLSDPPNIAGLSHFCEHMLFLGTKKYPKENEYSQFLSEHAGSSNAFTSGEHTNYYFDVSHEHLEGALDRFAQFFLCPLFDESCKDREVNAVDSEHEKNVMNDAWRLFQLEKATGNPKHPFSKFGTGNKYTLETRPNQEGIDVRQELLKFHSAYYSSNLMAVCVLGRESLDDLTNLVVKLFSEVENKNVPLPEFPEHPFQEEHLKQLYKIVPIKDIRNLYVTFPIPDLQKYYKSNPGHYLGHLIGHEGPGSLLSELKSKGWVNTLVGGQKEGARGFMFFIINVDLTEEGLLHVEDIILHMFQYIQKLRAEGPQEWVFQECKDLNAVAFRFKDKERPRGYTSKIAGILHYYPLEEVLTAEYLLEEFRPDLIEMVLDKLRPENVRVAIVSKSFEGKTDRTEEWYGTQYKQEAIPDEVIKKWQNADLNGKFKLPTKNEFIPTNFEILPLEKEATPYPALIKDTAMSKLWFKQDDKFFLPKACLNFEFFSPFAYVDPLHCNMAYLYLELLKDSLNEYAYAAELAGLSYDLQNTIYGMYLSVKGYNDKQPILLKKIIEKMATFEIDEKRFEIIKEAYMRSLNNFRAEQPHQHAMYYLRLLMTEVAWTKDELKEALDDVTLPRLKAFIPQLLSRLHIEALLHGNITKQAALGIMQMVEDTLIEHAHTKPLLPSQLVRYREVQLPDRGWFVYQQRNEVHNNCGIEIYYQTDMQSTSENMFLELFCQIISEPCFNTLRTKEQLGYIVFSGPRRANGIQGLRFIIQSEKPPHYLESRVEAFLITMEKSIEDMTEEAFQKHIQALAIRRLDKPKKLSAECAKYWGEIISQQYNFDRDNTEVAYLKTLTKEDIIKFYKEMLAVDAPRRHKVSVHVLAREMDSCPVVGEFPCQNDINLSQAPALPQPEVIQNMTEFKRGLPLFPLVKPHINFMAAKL

HEK293 [2] = test: optical interference in Abeta FP readout, dose response, artefact control for IDE activator project, biochemical, fluorescence polarization (AID 588442); assay type: functional, cell-based; conditions: Homo sapiens
HEK293 [3] = test: membrane integrity loss in HEK cells – cell-based, fluorescence, cytotoxicity control for IDE activator project, dose response (AID 588440); assay type: functional; conditions: Homo sapiens;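 note: cytotoxicity by LDH release measuring loss of membrane integrity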
Insulin-degrading enzyme [4] = biological target: T1, Insulin-degrading enzyme; test: recombinant IDE activation, cell-free – biochemical, fluorescence polarization, counter-screen for IDE activator project, dose response (AID 588681)
[5] = biological target: T2, Ubiquitin-conjugating enzyme E2 N (Homo sapiens, UniProt P61088); assay type: functional;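 note: Dose-response confirmation in a TR-FRET assay detecting UBC13-driven polyubiquitin chain formation, inhibition measured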
T2 sequence (P61088 whole entry): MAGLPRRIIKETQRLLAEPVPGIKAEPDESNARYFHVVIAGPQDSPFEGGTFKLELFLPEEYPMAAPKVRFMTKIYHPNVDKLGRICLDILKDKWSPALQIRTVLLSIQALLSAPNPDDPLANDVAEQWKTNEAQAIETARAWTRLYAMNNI

[6] = Luminescence Cell-Based Dose Retest to Confirm Inhibitors of Cancer Stem Cells. [Related pubchem assays (depositor defined):AID2717, AID2721]; assay type: functional; conditions: Homo sapiens
[7] = microbe, parasite or virus in culture; assay type: functional; conditions: Mycobacterium tuberculosis
[8] = cytotoxicity toward MDA-MB-231 breast cancer cells – cell-based, CellTiter-Glo luminescence, cherry-pick, cytotoxicity control for RAD54 inhibitor project, dose response (AID 651692); assay type: functional
[9] = biological target: Glycogen synthase kinase-3 alpha (Homo sapiens, UniProt P49840); test: Inhibition of Human GSK-3 alpha Activity Measured in Biochemical System Using Microfluidics - 2063-06_Inhibitor_Dose_DryPowder_Activity_Set2. [Related pubchem assays (depositor defined):AID2709]
Glycogen synthase kinase-3 alpha, sequence (P49840 whole entry): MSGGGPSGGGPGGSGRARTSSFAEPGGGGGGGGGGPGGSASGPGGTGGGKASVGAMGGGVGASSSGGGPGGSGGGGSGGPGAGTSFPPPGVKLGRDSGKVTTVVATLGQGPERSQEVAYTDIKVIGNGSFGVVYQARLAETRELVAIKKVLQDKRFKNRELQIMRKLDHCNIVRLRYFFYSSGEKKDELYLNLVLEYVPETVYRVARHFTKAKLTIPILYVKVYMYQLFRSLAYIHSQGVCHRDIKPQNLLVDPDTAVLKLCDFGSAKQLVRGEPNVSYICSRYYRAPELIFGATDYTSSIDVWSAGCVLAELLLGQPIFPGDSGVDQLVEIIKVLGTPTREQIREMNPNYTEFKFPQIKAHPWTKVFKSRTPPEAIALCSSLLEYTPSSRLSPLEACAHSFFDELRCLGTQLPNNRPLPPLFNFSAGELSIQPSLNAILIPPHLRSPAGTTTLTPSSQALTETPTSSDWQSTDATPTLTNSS

[10] = biological target: Glycogen synthase kinase-3 beta (Homo sapiens, UniProt P49841); test: Inhibition of Human GSK-3 beta Activity Measured in Biochemical System Using Microfluidics - 2063-05_Inhibitor_Dose_DryPowder_Activity_Set2. [Related pubchem assays (depositor defined):AID2709]
Glycogen synthase kinase-3 beta, sequence (P49841 whole entry): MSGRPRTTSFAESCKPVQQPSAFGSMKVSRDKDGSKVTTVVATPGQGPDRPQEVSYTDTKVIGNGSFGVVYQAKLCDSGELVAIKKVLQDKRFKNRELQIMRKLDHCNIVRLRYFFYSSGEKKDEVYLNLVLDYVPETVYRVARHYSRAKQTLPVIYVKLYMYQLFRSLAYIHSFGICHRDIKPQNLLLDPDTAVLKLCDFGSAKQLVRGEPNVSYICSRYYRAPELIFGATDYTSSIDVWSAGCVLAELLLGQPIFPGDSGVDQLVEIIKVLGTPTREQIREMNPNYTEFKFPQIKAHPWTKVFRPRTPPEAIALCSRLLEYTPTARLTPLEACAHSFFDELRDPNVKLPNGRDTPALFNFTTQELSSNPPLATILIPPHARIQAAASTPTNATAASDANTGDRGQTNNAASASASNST

[11] = viability of PTEN-deleted HCT116 cells – cell-based, HCT116 PTEN knockout, dose response (AID 1047); assay type: functional;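 note: HCT116 colon tumor cells with PTEN knocked out; cells exposed to compound for 60 hours before readout; potency for loss of cell viability measured by luminescence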
[12] = viability of HCT116 lacking mutant beta-catenin – cell-based, human colon tumor, dose response (AID 1045); assay type: functional;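 note: HCT116 colon tumor cells with beta catenin knocked out; cells exposed to compound for 60 hours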
[13] = biological target: T3, High affinity choline transporter 1 (Homo sapiens, UniProt Q9GZV3); test: human choline transporter potentiators, potency – cell-based, 10-point CRC, membrane potential dye, dose response (AID 602376); assay type: functional
T3 sequence (Q9GZV3 whole entry): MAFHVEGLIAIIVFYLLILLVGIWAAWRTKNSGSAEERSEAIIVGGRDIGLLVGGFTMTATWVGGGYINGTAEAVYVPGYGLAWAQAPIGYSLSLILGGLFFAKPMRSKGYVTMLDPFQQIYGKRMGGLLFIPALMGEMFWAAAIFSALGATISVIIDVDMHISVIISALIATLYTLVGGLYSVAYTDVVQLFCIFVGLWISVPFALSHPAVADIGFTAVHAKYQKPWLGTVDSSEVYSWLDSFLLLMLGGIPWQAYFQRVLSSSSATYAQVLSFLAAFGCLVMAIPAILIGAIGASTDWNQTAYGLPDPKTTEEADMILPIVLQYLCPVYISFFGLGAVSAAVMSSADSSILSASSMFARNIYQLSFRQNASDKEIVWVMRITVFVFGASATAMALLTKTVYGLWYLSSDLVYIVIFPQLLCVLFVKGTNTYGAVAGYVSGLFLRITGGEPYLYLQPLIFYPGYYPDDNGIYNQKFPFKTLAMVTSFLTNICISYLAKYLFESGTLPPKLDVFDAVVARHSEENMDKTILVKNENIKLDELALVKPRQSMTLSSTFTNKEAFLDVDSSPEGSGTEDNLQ

Question: Which results are given for O=C(NCC1CC1)c1onc(CSc2ccc(F)c(F)c2)c1C(=O)NCC1CC1?
Answer: EC50 (Insulin-degrading enzyme [1]): > 54.7 µM (inactive); EC50 (HEK293 [2]): > 54.7 µM (inactive); IC50 (HEK293 [3]): > 89.3 µM (inactive); EC50 (Insulin-degrading enzyme [4]): > 54.7 µM (inactive)

Question: For Cc1ccc(C)c(N2CCN(C(=S)Nc3ccc4nc(N5CCN(C)CC5)cc(C)c4c3)CC2)c1, which IC50 [5] is on record?
Answer: > 20 µM (inactive)

Question: And the AC50 [6]?
Answer: 13.3 µM (active)

Question: And the EC50 (Insulin-degrading enzyme [1])?
Answer: > 54.7 µM (inactive)

Question: And the CC50 [7]?
Answer: 17.1 µM (active)

Question: What about the EC50 (HEK293 [2]) of the same molecule?
Answer: > 55.9 µM (inactive)

Question: And the AC50 [8]?
Answer: 34.8 µM (active)

Question: And the IC50 (HEK293 [3])?
Answer: 18 µM (inactive)

Question: What about the EC50 (Insulin-degrading enzyme [4]) of the same molecule?
Answer: > 54.7 µM (inactive)

Question: What does the source list for Nc1nc(NCCCN2CCOCC2)nc(Nc2cccc(Cl)c2)c1[N+](=O)[O-]?
Answer: AC50 [9]: 0.429 µM (active); AC50 [10]: 0.253 µM (active)

Question: Which EC50 [11] does the source give for O=C(Cc1cccs1)N(Cc1ccco1)C1(C(=O)NC2CCCCC2)CCCCC1 here?
Answer: 159 µM (active)

Question: And the EC50 [12]?
Answer: 431 µM (active)

Question: What about the EC50 [13] of the same molecule?
Answer: 24.2 µM (active)
